The source of these data is publication PMC9821843, “Powerful Potential of Polyfluoroalkyl-Containing 4-Arylhydrazinylidenepyrazol-3-ones for Pharmaceuticals” (Molecules, 2022).

Data set [1] deals with T1, equine serum butyrylcholinesterase (BChE, EC 3.1.1.8) (Equus caballus, UniProt P81908).
T1 construct: equine serum butyrylcholinesterase (BChE, EC 3.1.1.8); purchased Sigma-Aldrich (Saint Louis, MO, USA); host or cells: equine serum
Put plainly: Inhibition of equine serum butyrylcholinesterase (Ellman assay). The format is biochemical. The following applies: read-out: Inhibition % at 20 µM, Equine BChE. The text has this: (§1) The following enzymes were purchased from Sigma-Aldrich (Saint Louis, MO, USA): porcine liver carboxylesterase (CES, EC 3.1.1.1), human erythrocyte acetylcholinesterase (AChE, EC 3.1.1.7) and equine serum butyrylcholinesterase (BChE, EC 3.1.1.8). Substrates for CES, AChE and BChE were 4-nitrophenyl acetate (4-NPA), acetylthiocholine iodide (ATCh) and butyrylthiocholine iodide (BTCh), respectively, and the colorimetric reagent for the AChE and BChE assays was 5,5’-dithio-bis-(2-nitrobenzoic acid) (DTNB) (Sigma-Aldrich). All the kinetic experiments were performed under standard conditions, according to the protocol of IPAC RAS for a reversible inhibitors study.
Final concentrations of reactants were 0.33 mM DTNB, 0.02 unit/mL of AChE or BChE and 1 mM of substrate (ATCh or BTCh, respectively). Reagent blanks consisted of reaction mixtures without enzyme to assess non-enzymatic hydrolysis of substrates.
Test compounds were dissolved in DMSO. Reaction mixtures contained a final DMSO concentration of 2% (v/v). […] Substrate was then added and residual enzyme activity relative to an inhibitor-free control was measured using a Bio-Rad Benchmark Plus microplate reader (Marnes-la-Coquette, France).
Measurements were performed in a Bio-Rad Benchmark Plus microplate reader. Each experiment was performed in triplicate. Plots, linear regressions and values of IC50, were determined using Origin 6.1 for Windows, OriginLab (Northampton, MA, USA).
A general note: Ellman's reagent forms a yellow product with free thiols.

Data set [2] concerns Trichophyton rubrum RCPF F 1408. Put plainly: Antifungal susceptibility testing, T. rubrum. The following applies: Trichophyton rubrum, RCPFF1408, read-out: MIC for fungi strains inhibition, T. rubrum.
Source text: (§2) The solvent was DMSO. […] In each test, a growth control and a sterility control were used.
For data set [3], the system named is Candida albicans RCPF Y 401/NCTC 885/653. As to the kind of experiment: Antifungal susceptibility testing, C. albicans. The following applies: NCTC885, read-out: MIC for fungi strains inhibition, C. albicans.
Source text: as §2
The test system of data set [4] is Neisseria gonorrhoeae ATCC 49226/NCTC 12700. Put plainly: Antibacterial activity against Neisseria gonorrhoeae. The format is cell-based. The following applies: read-out: MIC against Neisseria gonorrhoeae. As for the experimental part:
Antibacterial activity testing was done on the growth medium Difco GC medium base (Becton Dickinson, Franklin Lakes, NJ, USA) supplemented with 1% IsoVitaleX. Dilutions of chemical compounds were carried out in the range of 250–0.12 μg/mL in 24 well sterile plates (Sarstedt, Germany). Daily cultures of control bacterial strains were identified on a VITEK MS analyzer (BioMérieux, Marcy-l’Étoile, France) by MALDI-TOF mass spectrometry. The inoculation dose of N. gonorrhoeae inoculum was 10^5 CFU/mL.

Data set [5] is described as follows: ABTS radical cation scavenging activity assay. Also on record: key to ABTS•+-scavenging activity, TEAC (trolox equivalent antioxidant capacity): TEAC = ratio of compound slope to Trolox slope vs ABTS absorbance. Conditions: mean ± SEM; for ABTS•+-scavenging activity, TEAC (trolox equivalent antioxidant capacity): n.a. = inactive. As for the experimental part:
Radical scavenging activity of the compounds was evaluated by the ABTS radical cation (ABTS^•+) scavenging assay by the ability of the compounds to decolorize the ABTS^•+ solution [112] with some modifications. Trolox was used as a reference standard. Edaravone was used as the comparison compound. All tested compounds and standards were dissolved in DMSO. ABTS (2,2′-azinobis-(3-ethylbenzothiazoline-6-sulfonic acid)) was purchased from Tokyo Chemical Industry Co. Ltd. (Tokyo, Japan). Potassium persulfate (di-potassium peroxdisulfate), Trolox® (6-hydroxy-2,5,7,8-tetramethychroman-2-carboxylic acid), ascorbic acid, DMSO and HPLC-grade ethanol were obtained from Sigma-Aldrich Chemical Co. Aqueous solutions were prepared using deionized water.
The solution of ABTS^•+ was produced by mixing 7 mM ABTS aqueous solution with 2.45 mM potassium persulfate aqueous solution in equal quantities and allowing them to react for 12–16 h at room temperature in the dark. Radical scavenging capacity of the compounds was analyzed by mixing 10 μL of compound with 240 μL of ABTS^•+ working solution in ethanol (100 μM final concentration), and after 1 h of incubation at 30 °C the decrease in absorbance was measured spectrophotometrically at 734 nm using a Bio-Rad xMark microplate UV/VIS spectrophotometer (Bio-Rad, Hercules, CA, USA). The compounds were tested in the concentration range of 5 × 10^–7–4 × 10^–4 M. Ethanol blanks were run in each assay. Values were obtained from five replicates of each sample and three independent experiments.
Antioxidant activity was calculated as Trolox equivalent antioxidant capacity (TEAC values), consisting of the ratio between the slopes obtained from the linear correlation for concentrations of the tested compounds and Trolox with absorbance of ABTS radical. For the test compounds, which reduce ABTS^•+ absorbance by more than 60% at 100 µM, we also determined IC50 values as 50% reduction of the ABTS radical. The calculations were carried out using Origin 6.1 for Windows. Results were presented as mean ± SEM, calculated using GraphPad Prism version 6.05 for Windows, GraphPad Software.

For data set [6], the system named is Microsporum canis RCPF F 1643/1585. Put plainly: Antifungal susceptibility testing, M. canis. The following applies: Microsporum canis, RCPFF1643/1585, read-out: MIC for fungi strains inhibition, M. canis.
Source text: as §2
The nature of data set [7]: Oxygen radical absorbance capacity (ORAC-FL) assay. The following applies: n.a. = inactive; i.t.s. = interferes with test system. An excerpt: We evaluated the primary antioxidant activity of synthesized 4-AHPs 5–9 in comparison with their non-fluorinated analogues 9a,b using three standard tests: ABTS, FRAP (ferric reducing antioxidant power) and ORAC (oxygen radical absorbance capacity) assays. The ABTS assay evaluates the binding of a model ABTS radical cation (ABTS^•+), which is realized by the mechanism of single electron transfer (SET) and/or hydrogen atom transfer (HAT). The FRAP assay measures the ability of compounds to reduce the ferric 2,4,6-tripyridyl-s-triazine complex [Fe(TPTZ)2]^3+ to [Fe(TPTZ)2]^2+, which occurs exclusively by the SET mechanism. The ORAC-FL assay measures the oxidative degradation of the fluorescent molecule (FL – fluorescein) after being mixed with a free peroxyl radical generator such as 2,2′-azobis-(2-methylpropionamidine) dihydrochloride (AAPH) in the presence of antioxidant (tested compound). The ORAC-FL test describes the antioxidants’ ability to yield the hydrogen atom and, consequently, it is a HAT-based assay. Trolox was used in all tests as a reference antioxidant: the antioxidant activity of the test compounds was referred to the activity of Trolox. The well-known antioxidant Edaravone was also used for comparison.
The ORAC assay was performed according to the known method, with minor variations and described by us recently.

Data set [8] can be described thus: Acute toxicity evaluation in mice (ip). The following applies: CD-1, mouse, in vivo, 300 mg/kg. Here is the method: The toxicity evaluation was performed on CD-1 mice. […] The tested compounds in 1% starch mucilage were injected intraperitoneally into three mice. Then, animals were observed during 14 days, the number of deaths was counted and % of viability calculated.

The subject of data set [9] is Epidermophyton floccosum RCPF F 1659/17. As to the kind of experiment: Antifungal susceptibility testing, E. floccosum. The following applies: Epidermophyton floccosum, RCPFF1659/17, read-out: MIC for fungi strains inhibition, E. floccosum.
Source text: as §2
The next data set relates to Sprague-Dawley (SD) rats. Put plainly: Hot plate test (analgesic activity). The format is in vivo. The following applies: Rattus norvegicus, ip. Here is the method:
The hot plate test was conducted according to established guidelines on Sprague-Dawley (SD) rats (3 male and 3 female rodents per group). The compounds were intraperitoneally administered in the form of suspensions in 1% starch mucilage. Negative control group animals received vehicle only (1% starch mucilage). Diclofenac sodium (Hemofarm, Vršac, Serbia, 10 mg/kg in 1% starch mucilage solution) or metamizole sodium (PAO Biosynthesis, Sun Pharma, Penza, Russia, 15 mg/kg in 1% starch mucilage solution) were used as reference drugs. One and two hours after the injection, rats were placed on an electrically heated to 50 °C plate (Hot plate 60,200 series, TSE-systems, Bad Homburg, Germany) in a Plexiglas cylindrical restrainer (19 cm diameter × 30 cm). The nociceptive response time was measured by observing the appearance of rats’ movements (e.g., jumping, hind paw licking or shaking). Maximal cutoff time was set as 30 s regardless of the response in order to preclude skin damage.
Differences between the values of the latency period for the treated (experimental) and control groups of animals were considered significant at p ≤ 0.05.
For orientation: Thermal pain tests record how soon the animal reacts.

The target in data set [10] is T2, human erythrocyte acetylcholinesterase (AChE, EC 3.1.1.7) (Homo sapiens, UniProt P22303).
T2 construct: human erythrocyte acetylcholinesterase (AChE, EC 3.1.1.7); purchased Sigma-Aldrich (Saint Louis, MO, USA); host or cells: human erythrocytes
Put plainly: Inhibition of human erythrocyte acetylcholinesterase (Ellman assay). Type of data set: biochemical. Conditions: read-out: Inhibition % at 20 µM, Human AChE.
Source text: as §1
Reagent blanks consisted of reaction mixtures without enzyme to assess non-enzymatic hydrolysis of substrates.
Test compounds were dissolved in DMSO. Reaction mixtures contained a final DMSO concentration of 2% (v/v). […] Measurements were performed in a Bio-Rad Benchmark Plus microplate reader. Each experiment was performed in triplicate. Plots, linear regressions and values of IC50, were determined using Origin 6.1 for Windows, OriginLab (Northampton, MA, USA).

Setting [11] is: hot plate test, rats, dose 15 mg/kg, 1 h, n.a. = inactive (p > 0.05), read-out: Latent Period Prolongation, % 1 h.
Setting [12] is: hot plate test, rats, dose 15 mg/kg, 2 h, n.a. = inactive (p > 0.05), read-out: Latent Period Prolongation, % 2 h.

In brackets after ≈: the same amount, converted by molar mass. Where two headings read alike, the source gives them in different places.

T1 sequence (P81908 whole entry): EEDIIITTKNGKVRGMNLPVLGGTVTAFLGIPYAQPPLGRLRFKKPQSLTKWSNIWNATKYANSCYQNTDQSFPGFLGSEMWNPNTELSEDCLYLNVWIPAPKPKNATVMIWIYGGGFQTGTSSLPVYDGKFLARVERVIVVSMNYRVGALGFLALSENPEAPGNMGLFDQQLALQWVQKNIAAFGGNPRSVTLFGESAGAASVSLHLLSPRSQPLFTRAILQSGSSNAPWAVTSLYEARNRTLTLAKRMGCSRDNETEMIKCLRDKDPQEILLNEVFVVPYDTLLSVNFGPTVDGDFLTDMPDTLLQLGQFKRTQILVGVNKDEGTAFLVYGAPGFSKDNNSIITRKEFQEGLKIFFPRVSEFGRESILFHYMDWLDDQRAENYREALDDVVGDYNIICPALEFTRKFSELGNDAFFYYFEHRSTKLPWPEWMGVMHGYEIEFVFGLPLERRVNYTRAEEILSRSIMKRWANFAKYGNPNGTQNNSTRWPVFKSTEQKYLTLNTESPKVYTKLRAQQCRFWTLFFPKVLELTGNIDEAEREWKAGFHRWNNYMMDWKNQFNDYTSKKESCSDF
T2 sequence (P22303 32-617 isoform P22303-2 limits assumed): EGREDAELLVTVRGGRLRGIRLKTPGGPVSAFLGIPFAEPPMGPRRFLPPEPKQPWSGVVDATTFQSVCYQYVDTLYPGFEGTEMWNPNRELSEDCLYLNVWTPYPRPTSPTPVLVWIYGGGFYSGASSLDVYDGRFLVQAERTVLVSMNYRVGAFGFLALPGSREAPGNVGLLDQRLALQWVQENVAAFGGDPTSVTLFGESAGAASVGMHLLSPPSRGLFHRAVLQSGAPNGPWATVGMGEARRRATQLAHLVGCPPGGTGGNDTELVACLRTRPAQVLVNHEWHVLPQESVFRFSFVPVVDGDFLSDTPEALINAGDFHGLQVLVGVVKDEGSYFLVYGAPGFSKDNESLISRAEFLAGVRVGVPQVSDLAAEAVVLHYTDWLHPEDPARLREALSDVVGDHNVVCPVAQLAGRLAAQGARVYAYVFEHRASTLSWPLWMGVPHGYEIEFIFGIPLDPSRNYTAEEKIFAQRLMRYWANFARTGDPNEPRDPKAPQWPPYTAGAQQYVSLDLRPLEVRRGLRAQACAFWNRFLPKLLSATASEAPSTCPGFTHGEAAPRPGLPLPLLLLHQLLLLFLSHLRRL

For the compound `O=C1/C(=N\Nc2ccccc2)C(C(F)(F)F)=NN1c1ccccc1` [5e, (4Z)-2-Phenyl-4-(2-phenylhydrazinylidene)-5-(trifluoromethyl)-2,4-dihydro-3H-pyrazol-3-one], the inhibition at 20 µM in data set [1] came out at 5.1 ± 0.9%. The MIC was 200 mg/L (≈ 602 µM) in data set [2]; over 200 mg/L in data set [3]; over 250 mg/L in data set [4]; 200 mg/L (≈ 602 µM) in data set [6]; 200 mg/L (≈ 602 µM) in data set [9]. For the same compound, the “ABTS•+-scavenging activity, TEAC (trolox equivalent antioxidant capacity)” value (shortened to “ABTS•+-scavenging activity, TEAC”) in data set [5] came to 0.02. For the same compound, in data set [7], the “ORAC-FL (TE, antioxidant activity in Trolox equivalents)” value (“ORAC-FL” below) is reported as “i.t.s”. Further, in data set [8], the survival at 14 days is 100%. Besides, the change in vivo at 15 mg/kg in the data set on Sprague-Dawley (SD) rats (setting [11]) is 100%; with Sprague-Dawley (SD) rats (setting [12]), 129%.
Take `COc1ccc(N/N=C2\C(=O)N(c3ccccc3)N=C2C(F)(F)F)cc1` [5g, (4Z)-4-(2-(4-Methoxyphenyl)hydrazinylidene)-2-phenyl-5-(trifluoromethyl)-2,4-dihydro-3H-pyrazol-3-one]: in data set [4], the minimal inhibitory concentration (MIC) stood at 0.9 mg/L (≈ 2.48 µM). Further, the inhibition at 20 µM in data set [10] stood at 12.3 ± 2.3%. Moreover, in data set [5], the IC50 was 55.6 ± 2.4 µM and the “ABTS•+-scavenging activity, TEAC” value worked out at 0.35 ± 0.03. Besides, the “ORAC-FL” value in data set [7] was 2.20 ± 0.36. This compound also had a survival at 14 days in data set [8] of 100%. Besides, the change in vivo at 15 mg/kg in the data set on Sprague-Dawley (SD) rats (setting [12]) stood at 76.9%.
In the case of `Cc1ccc(N/N=C2\C(=O)N(c3ccc(S(C)(=O)=O)cc3)N=C2C(F)(F)F)cc1` [5q, (4Z)-2-[4-(Methylsulfonyl)phenyl]-4-[2-(4-methylphenyl)hydrazinylidene]-5-(trifluoromethyl)-2,4-dihydro-3H-pyrazol-3-one], the MIC in [4] is over 250 mg/L. Also, the inhibition at 20 µM in data set [10] worked out at 4.3 ± 0.8%. The “ABTS•+-scavenging activity, TEAC” value in data set [5] was 0.02 ± 0.001. Besides, the “ORAC-FL” value in [7] is “i.t.s”. Also, the survival at 14 days in [8] amounted to 100%. For the same compound, the change in vivo at 15 mg/kg in the data set with Sprague-Dawley (SD) rats (setting [11]) turned out to be 104%; in the data set with Sprague-Dawley (SD) rats (setting [12]), 110%.
For `Cc1ccc(N/N=C2\C(=O)N(c3ccc(C)cc3)N=C2C(F)(F)F)cc1` [5r, (4Z)-2-(4-Methylphenyl)-4-[2-(4-methylphenyl)hydrazinylidene]-5-(trifluoromethyl)-2,4-dihydro-3H-pyrazol-3-one], the inhibition at 20 µM in [1] is 4 ± 1%. Also, the MIC is over 200 mg/L in data set [2]; over 200 mg/L in [3]; over 250 mg/L in data set [4]; over 200 mg/L in data set [6]; over 200 mg/L in data set [9]. The “ABTS•+-scavenging activity, TEAC” value in [5] amounted to 0.13 ± 0.007. In [8], this compound returned a survival at 14 days of 100%. Further, the values for the change in vivo at 15 mg/kg in the data set on Sprague-Dawley (SD) rats (setting [11]) and in the data set on Sprague-Dawley (SD) rats (setting [12]) were 63.2% and 74.2%, respectively.
`Cc1ccc(N/N=C2\C(=O)NN=C2C(F)(F)C(F)(F)C(F)(F)C(F)(F)F)cc1` [8a, (4Z)-5-(Nonafluorobutyl)-4-[2-(4-methylphenyl)hydrazinylidene]-2,4-dihydro-3H-pyrazol-3-one]: the MIC in data set [2] is over 200 mg/L; in data set [3] it was over 200 mg/L; in data set [4], 250 mg/L (≈ 595 µM); in data set [6], over 200 mg/L; in data set [9] it was over 200 mg/L. Further, the IC50 in [5] worked out at 48.3 ± 2.2 µM. The “ABTS•+-scavenging activity, TEAC” value in [5] stood at 0.43 ± 0.03. For the same compound, the “ORAC-FL” value in [7] stood at 2.33 ± 0.15. In addition, the survival at 14 days in data set [8] was 100%. The change in vivo at 15 mg/kg in the data set on Sprague-Dawley (SD) rats (1 h, read-out: Latent Period Prolongation, % 1 h) stood at 62.9%; in the data set on Sprague-Dawley (SD) rats (2 h, read-out: Latent Period Prolongation, % 2 h) it was 40.4%.

The inhibition is the drop in the measured response relative to a control, in per cent. Usually MIC stands for the lowest concentration found to suppress growth. What is called IC50 is the concentration that inhibits the measured activity by half.
